ChEMBL document CHEMBL4118143, “Discovery of dimethyl pent-4-ynoic acid derivatives, as potent and orally bioavailable DGAT1 inhibitors that suppress body weight in diet-induced mouse obesity model” (Bioorg Med Chem Lett, 2018)
In brackets after ≈: the same amount, converted by molar mass. Activity calls are given as the source filed them. No cut-off for these calls is given here.

Experiments:
[1] = biological target: T1, Diacylglycerol O-acyltransferase 1 (Mus musculus, UniProt Q9Z2A7); assay: Inhibition of mouse DGAT1 expressed in insect cell membranes using diacylglycerol/[14C]-oleoyl-CoA as substrate preincubated for 10 mins followed by [14C]-oleoyl-CoA addition measured after 15 mins by scintillation counting method
T1 sequence (Q9Z2A7 whole entry): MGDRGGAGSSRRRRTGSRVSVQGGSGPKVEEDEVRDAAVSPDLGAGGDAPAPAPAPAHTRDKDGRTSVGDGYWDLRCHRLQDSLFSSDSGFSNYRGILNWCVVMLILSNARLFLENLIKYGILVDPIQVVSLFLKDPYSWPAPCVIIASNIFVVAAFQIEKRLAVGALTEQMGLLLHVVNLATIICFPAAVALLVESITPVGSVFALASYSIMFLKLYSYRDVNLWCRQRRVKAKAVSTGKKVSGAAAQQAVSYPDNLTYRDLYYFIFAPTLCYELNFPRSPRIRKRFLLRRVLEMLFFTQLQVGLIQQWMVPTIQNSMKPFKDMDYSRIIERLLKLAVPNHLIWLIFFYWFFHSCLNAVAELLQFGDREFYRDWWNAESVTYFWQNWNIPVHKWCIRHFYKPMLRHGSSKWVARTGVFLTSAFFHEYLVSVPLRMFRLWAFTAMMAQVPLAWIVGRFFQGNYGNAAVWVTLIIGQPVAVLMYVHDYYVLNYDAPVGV

[2] = Clearance in Sprague-Dawley rat at 0.5 mg/kg, iv; format: ADME, organism-based; settings: in vivo
[3] = Volume of distribution at steady state in Sprague-Dawley rat at 0.5 mg/kg, iv; format: ADME, organism-based; settings: in vivo, read-out: Vdss
[4] = Cmax in Sprague-Dawley rat at 10 mg/kg, po; format: ADME, organism-based; parameters: dose 10 mg/kg, route oral; settings: in vivo
[5] = Tmax in Sprague-Dawley rat at 10 mg/kg, po; format: ADME, organism-based; settings: in vivo
[6] = AUC in Sprague-Dawley rat at 10 mg/kg, po; format: ADME, organism-based; settings: in vivo
[7] = Oral bioavailability in Sprague-Dawley rat at 10 mg/kg; format: ADME, organism-based; settings: in vivo
[8] = biological target: T2, Diacylglycerol O-acyltransferase 1 (Homo sapiens, UniProt O75907); assay: Inhibition of human DGAT1 expressed in insect cell membranes using diacylglycerol/[14C]-oleoyl-CoA as substrate preincubated for 10 mins followed by [14C]-oleoyl-CoA addition measured after 15 mins by scintillation counting method
T2 sequence (O75907 whole entry): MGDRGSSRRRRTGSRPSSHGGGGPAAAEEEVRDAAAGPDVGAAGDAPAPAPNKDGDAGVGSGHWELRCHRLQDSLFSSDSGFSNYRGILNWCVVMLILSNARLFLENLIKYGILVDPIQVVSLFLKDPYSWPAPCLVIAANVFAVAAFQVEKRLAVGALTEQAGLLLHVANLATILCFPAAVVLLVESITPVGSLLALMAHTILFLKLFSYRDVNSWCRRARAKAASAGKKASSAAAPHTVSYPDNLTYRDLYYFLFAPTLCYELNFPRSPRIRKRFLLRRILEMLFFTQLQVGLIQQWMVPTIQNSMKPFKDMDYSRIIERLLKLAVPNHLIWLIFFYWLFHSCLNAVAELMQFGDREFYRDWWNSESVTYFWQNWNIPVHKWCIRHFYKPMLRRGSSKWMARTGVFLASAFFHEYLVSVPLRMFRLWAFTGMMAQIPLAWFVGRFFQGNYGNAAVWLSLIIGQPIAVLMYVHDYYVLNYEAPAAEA

[9] = biological target: T3, Diacylglycerol O-acyltransferase 2 (Homo sapiens, UniProt Q96PD7); assay: Inhibition of human DGAT2 expressed in insect cell membranes using diacylglycerol/[14C]-oleoyl-CoA as substrate preincubated for 10 mins followed by [14C]-oleoyl-CoA addition measured after 15 mins by scintillation counting method
T3 sequence (Q96PD7 whole entry): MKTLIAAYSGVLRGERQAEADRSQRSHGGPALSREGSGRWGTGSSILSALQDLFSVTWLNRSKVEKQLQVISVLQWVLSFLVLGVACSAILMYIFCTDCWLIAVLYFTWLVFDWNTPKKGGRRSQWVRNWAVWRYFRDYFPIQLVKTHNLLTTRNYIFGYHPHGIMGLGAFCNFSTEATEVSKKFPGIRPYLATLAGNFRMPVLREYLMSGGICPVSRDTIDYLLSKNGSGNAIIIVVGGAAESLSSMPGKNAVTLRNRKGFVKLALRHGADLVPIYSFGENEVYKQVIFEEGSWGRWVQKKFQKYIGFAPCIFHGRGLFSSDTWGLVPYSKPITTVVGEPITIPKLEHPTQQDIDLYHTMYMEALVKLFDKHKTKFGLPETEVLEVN

[10] = biological target: T2, Diacylglycerol O-acyltransferase 1; assay: Inhibition of DGAT1 in human HEK293 cells using [13C18]oleic acid as substrate assessed as decrease in triacylglycerol synthesis preincubated for 15 mins followed by [13C18]oleic acid addition measured after 2 hrs by LC/MS/MS analysis; format: cell-based
[11] = Solubility of the compound at pH 7.4; format: physicochemical; settings: buffer
[12] = Protein binding in human plasma; format: ADME, cell-free; settings: read-out: PPB (converted)
[13] = Intrinsic clearance in human liver microsomes; format: ADME, microsome; settings: read-out: CLH
[14] = Metabolic stability in human liver microsomes assessed as parent compound remaining measured at 60 mins; format: ADME, microsome; settings: read-out: Stability
[15] = Intrinsic clearance in mouse liver microsomes; format: ADME, microsome; settings: read-out: CLH
[16] = Metabolic stability in mouse liver microsomes assessed as parent compound remaining measured at 60 mins; format: ADME, microsome; settings: read-out: Stability
Cytochrome P450 1A2 = biological target: T4, Cytochrome P450 1A2 (Homo sapiens, UniProt P05177); assay: Inhibition of CYP1A2 (unknown origin); format: ADME
T4 sequence (P05177 whole entry): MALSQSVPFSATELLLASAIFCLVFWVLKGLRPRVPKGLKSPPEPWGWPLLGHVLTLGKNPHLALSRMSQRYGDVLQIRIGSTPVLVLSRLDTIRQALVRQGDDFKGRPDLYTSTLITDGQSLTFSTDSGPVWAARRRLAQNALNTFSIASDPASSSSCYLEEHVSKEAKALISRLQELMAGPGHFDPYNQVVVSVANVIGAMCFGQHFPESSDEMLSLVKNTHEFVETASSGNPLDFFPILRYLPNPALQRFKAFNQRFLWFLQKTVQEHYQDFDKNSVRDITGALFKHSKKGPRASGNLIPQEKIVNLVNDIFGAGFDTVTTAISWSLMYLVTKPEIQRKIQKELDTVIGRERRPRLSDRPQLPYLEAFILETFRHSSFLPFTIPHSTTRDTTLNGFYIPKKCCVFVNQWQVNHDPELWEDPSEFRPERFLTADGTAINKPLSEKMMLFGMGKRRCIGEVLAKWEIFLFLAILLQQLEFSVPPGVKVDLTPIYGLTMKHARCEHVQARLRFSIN

Cytochrome P450 2C9 = Cytochrome P450 2C9 (Homo sapiens, UniProt P11712); assay: Inhibition of CYP2C9 (unknown origin); format: ADME
Cytochrome P450 2C19 = Cytochrome P450 2C19 (Homo sapiens, UniProt P33261); assay: Inhibition of CYP2C19 (unknown origin); format: ADME
Cytochrome P450 2D6 = Cytochrome P450 2D6 (Homo sapiens, UniProt P10635); assay: Inhibition of CYP2D6 (unknown origin); format: ADME
Cytochrome P450 3A4 = Cytochrome P450 3A4 (Homo sapiens, UniProt P08684); assay: Inhibition of CYP3A4 (unknown origin); format: ADME
[17] = Clearance in CD1 mouse at 0.5 mg/kg, iv; format: ADME, organism-based; settings: in vivo
[18] = Volume of distribution at steady state in CD1 mouse at 0.5 mg/kg, iv; format: ADME, organism-based; settings: in vivo, read-out: Vdss
[19] = Cmax in CD1 mouse at 10 mg/kg, po; format: ADME, organism-based; parameters: dose 10 mg/kg, route oral; settings: in vivo
[20] = Tmax in CD1 mouse at 10 mg/kg, po; format: ADME, organism-based; settings: in vivo
[21] = AUC in CD1 mouse at 10 mg/kg, po; format: ADME, organism-based; settings: in vivo
[22] = Oral bioavailability in CD1 mouse at 10 mg/kg; format: ADME, organism-based; settings: in vivo
Mus musculus [23] = assay: Inhibition of corn oil-induced plasma triacylglycerol excursion in CD1 mouse at 0.3 to 1 mg/kg administered via oral gavage 30 mins prior to corn oil challenge measured at 2 hrs by lipid tolerance test; format: functional, organism-based
Mus musculus [24] = assay: Antiobesity activity in diet-induced obesity C57BL/6 mouse model assessed as reduction in body weight at 10 mg/kg administered via oral gavage as bid for 7 days; format: functional, organism-based
Mus musculus [25] = assay: Antiobesity activity in diet-induced obesity C57BL/6 mouse model assessed as reduction in cumulative food intake at 10 mg/kg administered via oral gavage as bid for 7 days relative to vehicle-treated control; format: functional; parameters: scale not given: the % may be the effect or the level left
Mus musculus [26] = assay: Hepatotoxicity in diet-induced obesity C57BL/6 mouse model at 10 mg/kg administered via oral gavage as bid for 7 days; format: toxicity, organism-based; settings: in vivo, 168 h

Cytochrome P450 3A4, sequence (P08684 whole entry): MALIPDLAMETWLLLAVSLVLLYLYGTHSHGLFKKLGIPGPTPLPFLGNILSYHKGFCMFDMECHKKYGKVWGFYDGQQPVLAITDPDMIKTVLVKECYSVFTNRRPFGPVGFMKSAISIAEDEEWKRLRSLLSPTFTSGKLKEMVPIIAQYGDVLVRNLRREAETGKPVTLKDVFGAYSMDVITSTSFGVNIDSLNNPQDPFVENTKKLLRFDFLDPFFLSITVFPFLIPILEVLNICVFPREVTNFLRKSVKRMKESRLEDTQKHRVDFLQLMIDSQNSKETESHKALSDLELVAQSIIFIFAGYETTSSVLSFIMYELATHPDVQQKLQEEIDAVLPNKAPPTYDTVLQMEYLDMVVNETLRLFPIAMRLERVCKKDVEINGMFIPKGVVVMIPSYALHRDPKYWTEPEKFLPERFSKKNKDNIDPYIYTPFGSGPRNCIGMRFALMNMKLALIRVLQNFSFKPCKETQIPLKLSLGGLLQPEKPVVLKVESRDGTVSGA
Cytochrome P450 2C9, sequence (P11712 whole entry): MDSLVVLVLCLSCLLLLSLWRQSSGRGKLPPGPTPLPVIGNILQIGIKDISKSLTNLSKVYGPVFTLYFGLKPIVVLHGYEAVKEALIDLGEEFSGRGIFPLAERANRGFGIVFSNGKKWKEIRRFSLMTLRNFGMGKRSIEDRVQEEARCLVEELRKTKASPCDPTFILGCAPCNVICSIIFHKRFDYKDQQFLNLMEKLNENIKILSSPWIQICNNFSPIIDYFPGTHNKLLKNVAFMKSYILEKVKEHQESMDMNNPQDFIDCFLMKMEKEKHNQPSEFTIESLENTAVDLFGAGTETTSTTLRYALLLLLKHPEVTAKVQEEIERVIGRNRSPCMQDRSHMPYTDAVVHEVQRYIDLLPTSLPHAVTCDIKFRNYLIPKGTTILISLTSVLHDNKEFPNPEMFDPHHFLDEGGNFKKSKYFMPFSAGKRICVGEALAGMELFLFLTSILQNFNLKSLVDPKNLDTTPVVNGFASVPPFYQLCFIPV
Cytochrome P450 2C19, sequence (P33261 whole entry): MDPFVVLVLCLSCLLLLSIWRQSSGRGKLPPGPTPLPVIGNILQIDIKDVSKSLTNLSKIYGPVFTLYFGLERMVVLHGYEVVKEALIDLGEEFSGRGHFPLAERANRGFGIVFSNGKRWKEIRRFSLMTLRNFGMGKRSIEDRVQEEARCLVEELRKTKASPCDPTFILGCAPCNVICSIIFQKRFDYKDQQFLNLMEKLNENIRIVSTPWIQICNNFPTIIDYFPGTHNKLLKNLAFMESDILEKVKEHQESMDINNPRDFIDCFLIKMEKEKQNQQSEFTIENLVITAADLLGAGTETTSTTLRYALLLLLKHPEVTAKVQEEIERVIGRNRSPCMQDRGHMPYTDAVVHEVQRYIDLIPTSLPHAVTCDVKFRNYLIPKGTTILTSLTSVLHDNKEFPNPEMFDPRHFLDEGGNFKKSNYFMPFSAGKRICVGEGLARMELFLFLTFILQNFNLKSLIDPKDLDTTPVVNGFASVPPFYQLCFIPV
Cytochrome P450 2D6, sequence (P10635 whole entry): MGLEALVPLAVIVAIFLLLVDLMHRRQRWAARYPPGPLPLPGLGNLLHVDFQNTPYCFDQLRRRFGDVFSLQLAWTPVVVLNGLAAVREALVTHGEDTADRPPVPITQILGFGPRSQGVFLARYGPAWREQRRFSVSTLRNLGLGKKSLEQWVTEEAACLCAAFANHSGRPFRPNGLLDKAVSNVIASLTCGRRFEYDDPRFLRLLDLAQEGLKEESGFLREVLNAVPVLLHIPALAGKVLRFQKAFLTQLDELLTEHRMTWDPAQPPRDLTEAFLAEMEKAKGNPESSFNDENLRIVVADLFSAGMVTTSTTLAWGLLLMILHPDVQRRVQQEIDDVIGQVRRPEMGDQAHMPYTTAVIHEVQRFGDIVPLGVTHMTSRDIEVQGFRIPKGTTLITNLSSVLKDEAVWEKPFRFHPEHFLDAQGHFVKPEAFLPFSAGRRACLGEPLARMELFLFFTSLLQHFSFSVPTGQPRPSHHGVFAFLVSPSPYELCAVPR

In the case of `Cc1cc(N2CCOc3ncnc(N)c3C2=O)cc(F)c1C#CC(C)(C)CC(=O)O`, the IC50 [1] is reported as 11 nM.
`CCc1cc(N2CCOc3ncnc(N)c3C2=O)ccc1C#CC(C)(C)CC(=O)O` gave an IC50 [1] of 682 nM.
`CC(C)(C#Cc1ccc(N2CCOc3ncnc(N)c3C2=O)cc1Cl)CC(=O)O` gave an IC50 [1] of 26 nM.
For `CC(C)(C#Cc1ccc(N2CCOc3ncnc(N)c3C2=O)cc1)CC(=O)O`, the clearance [2] was 14.8 mL/min/kg, the Vd [3] was 1.06 L/kg and the Cmax [4] was 2160 ng/mL. It also gave a Tmax [5] of 30 min, an AUC [6] of 4100 ng·h/mL and a bioavailability [7] of 42%.
For `COc1cc(N2CCOc3ncnc(N)c3C2=O)ccc1C#CC(C)(C)CC(=O)O`, the IC50 [1] was 728 nM.
Work on `CC(C)(C#Cc1ccc(N2CCOc3ncnc(N)c3C2=O)cc1F)CC(=O)O` yielded an IC50 [1] of 58 nM.
`CC(C)(C#Cc1ccc(N2CCOc3ncnc(N)c3C2=O)cc1C(F)(F)F)CC(=O)O` gave an IC50 [1] of 24 nM.
Work on `COc1cc(N2CCOc3ncnc(N)c3C2=O)cc(C)c1C#CC(C)(C)CC(=O)O` yielded an IC50 [1] of 96 nM.
`CCc1cc(N2CCOc3ncnc(N)c3C2=O)cc(CC)c1C#CC(C)(C)CC(=O)O` gave an IC50 [1] of 12 nM.
With `Cc1cc(N2CCOc3ncnc(N)c3C2=O)cc(Cl)c1C#CC(C)(C)CC(=O)O` the IC50 [1] was 14 nM.
In the case of `Cc1cc(C#CC(C)(C)CC(=O)O)ccc1N1CCOc2ncnc(N)c2C1=O`, the IC50 [1] is reported as 3760 nM.
In the case of `CC(C)(C#Cc1c(Cl)cc(N2CCOc3ncnc(N)c3C2=O)cc1Cl)CC(=O)O`, the IC50 [1] is reported as 10 nM.
With `Cc1cc(N2CCOc3ncnc(N)c3C2=O)cc(C)c1C#CC(C)(C)CC(=O)O` the IC50 [8] was 21 to 28 nM, the IC50 [1] was 12 nM and the IC50 [9] was over 50 µM. The EC50 [10] was 26 nM, the solubility [11] was 110 µM (≈ 44.9 µg/mL) and the fraction unbound [12] was 0.139. The CLint scaled [13] was under 9.5 mL/min/kg, the remaining at 1 h [14] was 97.6% and the CLint scaled [15] was under 38 mL/min/kg. The remaining at 1 h [16] was 97.9%, the IC50 (Cytochrome P450 1A2) was 27.6 µM and the IC50 (Cytochrome P450 2C9) was over 100 µM. The IC50 (Cytochrome P450 2C19) was 29.7 µM, the IC50 (Cytochrome P450 2D6) was 27.2 µM and the IC50 (Cytochrome P450 3A4) was 45.5 µM. For the same compound, the clearance [2] was 4.76 mL/min/kg, the Vd [3] was 1.12 L/kg and the Cmax [4] was 8700 ng/mL. For the same compound, the Tmax [5] was 30 min, the AUC [6] was 21000 ng·h/mL and the bioavailability [7] was 70%. For the same compound, the clearance [17] was 39.3 mL/min/kg, the Vd [18] was 2.44 L/kg and the Cmax [19] was 521 ng/mL. For the same compound, the Tmax [20] was 30 min, the AUC [21] was 1250 ng·h/mL and the bioavailability [22] was 31%. The inhibition (Mus musculus [23]) was “Active”, the Activity (Mus musculus [24]) was “Active” and the Activity (Mus musculus [25]) was 11%. The Activity (Mus musculus [26]) was “Non-Toxic”.
`CC(C)(C#Cc1ccc(N2CCOc3ncnc(N)c3C2=O)cc1OC(F)(F)F)CC(=O)O` showed an IC50 [1] of 92 nM.
Compound `CCc1cc(N2CCOc3ncnc(N)c3C2=O)cc(C)c1C#CC(C)(C)CC(=O)O` has an IC50 [1] of 12 nM.
